# Assay results as given in patent US20250186536A1, “SUSTAINED RELEASE PEPTIDE FORMULATIONS” (RHYTHM PHARMACEUTICALS, INC., priority 2017, published 2025).
# How the values were obtained:
# [1] = Part A single-dose pharmacokinetics of long-acting setmelanotide formulation in healthy obese subjects; type: in vivo, human; settings: for AUC(0-inf) / Cmax / Tmax / half-life: human, plasma; for Tmax: read-out: median tmax
# Experimental: (§1) In order to assess the pharmacokinetics of setmelanotide, a two part study was carried out comprising single dose administration (Part A) and multiple dose administration (Part B) with healthy obese subjects.
# (§2) Part A was a rising-dose, placebo-controlled study including up to 3 sequential panels. For each panel, 10 normal obese subjects in good health between the ages of 21 and 54 were assigned to randomly-ordered treatments which included 8 active and 2 placebo treatments. Data acquired from Part A were used to determine the dose and dosing regimen for Part B. In Part B, 12 normal healthy obese patients were randomly assigned to receive either 6 active and 6 placebo treatments. Subjects received once weekly subcutaneous injection of the assigned formulation for 4 weeks. Patients in Part B were housed in the clinical unit for the 28 days.
# (§3) Setmelanotide was formulated in a sterile liquid polar lipid phase consisting of soy phosphatidylcholine, glycerol dioleate, ethanol and citrate buffer. Without being bound by theory, the setmelanotide formulation behaves in a long-acting fashion, wherein when injected subcutaneously, aqueous body fluid is absorbed by the lipid phase to form a gel like depot consisting of liquid crystals formed in situ.
# 10 normal obese subjects enrolled for each dose level of Part A; 8 received active drug, and 2 received placebo. There were 3 dose levels used in the single dose phase which were administered according to the sequential, rising dose design. The single setmelanotide doses administered were in sequence: 2.5 mg, 10 mg, and 30 mg. Setmelanotide concentrations were analyzed and safety was assessed before the next higher dose level was started. The drug was administered subcutaneously on the morning of dosing. Blood samples were collected prior to dosing and at 0.5, 1, 2, 3, 4, 6, 8, 10, 12, 16, 24, 30, and 36 hours post-dose (in the clinic), then at approximately 48, 60, 72, 96, 120, 168, 240, and 336 hours post-dose as outpatients. Based on the PK analysis of the first dose, additional blood samples were included for the 30 mg dose at 21 ([…]) and 28 ([…]) days post-dose. The actual times of blood collection were recorded.
# [2] = Part B multiple-dose pharmacokinetics (once weekly for 4 weeks) in obese subjects; type: in vivo, human
# Experimental: as §1, §2, §3
# Twelve (12) obese subjects were enrolled in Part B; 6 received active drug, and 6 were given placebo. Based on results from Part A, setmelanotide 10 mg once weekly was selected as the dose for Part B. Subjects were housed in the clinical facility for the entire 4 weeks of study. Qualified subjects entered the clinical facility the evening before the first dose. Subjects assigned to active treatment received setmelanotide 10 mg subcutaneously in the morning on Day 1. Placebo subjects received the same volume of the placebo injection as the active treatment. Subjects were fasting from the evening before to 4 hours after dosing. Standard lowfat meals were served. Subjects were also dosed on Days 8, 15, and 22 with the treatment given on Day 1.
# Blood samples were collected at a time before dosing and at 0.5, 1, 2, 3, 4, 6, 8, 10, 12, 16, 24, 30, 36, 48, 60, 72, 96, 120, 168, 240, and 336 hours during Week 1 and during Week 4. The actual sampling times were recorded. In addition, blood samples were collected at a time just before dosing for trough setmelanotide concentrations for evaluating the attainment of steady state.
# [3] = Stability analysis of setmelanotide formulations (degradation by HPLC); type: physicochemical
# Experimental: Components of exemplary setmelanotide formulations were varied in order to assess their impact on the stability of setmelanotide over time. In a first study, setmelanotide formulations were prepared as described in Example 2 with 30 mg/mL setmelanotide using different forms of GDO: 1) GDO of commercial purity; 2) GDO of commercial purity, which has been further purified to remove fatty acid compounds; and 3) synthetic GDO. The formulations were stored in 1 mL glass syringes equipped with staked stainless steel […] and rubber plungers at 40° C. for up to three months.
# The effect of EDTA concentration on setmelanotide degradation was also investigated in a second study. Syringes containing setmelanotide formulations with higher EDTA along with GDO of varying sources were prepared, and setmelanotide degradation was quantified by HPLC over time. The results of this study are depicted in FIG. 6, and indicate that higher concentrations of EDTA have a small effect on setmelanotide stability in the presence of either GDO of commercial purity or synthetic GDO.
# In a third study, the effect of setmelanotide and EDTA concentrations were explored in the presence of synthetic GDO.
# [4] = 10 mg SC once weekly for 4 weeks
smiles,measurement,setting,value
CC(=O)N[C@@H](CCCNC(=N)N)C(=O)N[C@H]1CSSC[C@@H](C(N)=O)NC(=O)[C@H](Cc2c[nH]c3ccccc23)NC(=O)[C@H](CCCNC(=N)N)NC(=O)[C@@H](Cc2ccccc2)NC(=O)[C@H](Cc2c[nH]cn2)NC(=O)[C@@H](C)NC1=O [setmelanotide],dose proportionality of AUC∞,[1]; 2.5 mg dose,less than proportional
same,dose proportionality of AUC,[1]; 10 mg and 30 mg doses,proportional
same,dose proportionality of Cmax,[1]; 2.5 to 30 mg dose range,roughly proportional
same,AUC(0-inf),[1]; single SC dose 2.5 mg,92.9 ng·h/mL
same,Cmax,[1]; single SC dose 2.5 mg,2.92 ng/mL
same,Tmax,[1]; single SC dose 2.5 mg,3.5 h
same,AUC(0-inf),[1]; single SC dose 10 mg,1140 ng·h/mL
same,Cmax,[1]; single SC dose 10 mg,11.5 ng/mL
same,half-life,[1]; single SC dose 10 mg,123 h
same,Tmax,[1]; single SC dose 10 mg,4 h
same,AUC(0-inf),[1]; single SC dose 30 mg,3470 ng·h/mL
same,Cmax,[1]; single SC dose 30 mg,34.1 ng/mL
same,half-life,[1]; single SC dose 30 mg,159 h
same,Tmax,[1]; single SC dose 30 mg,6 h
same,time by which all values were below quantifiable,[1]; single SC dose 2.5 mg,≤ 96 h
same,time past which profile was defined,[1]; single SC dose 10 mg,> 168 h
same,time past which profile was defined,[1]; single SC dose 30 mg,> 168 h
same,earliest plasma sample time in which setmelanotide appeared,"[1]; single SC dose, generally",0.5 h
same,time measurable in plasma after dosing,"[1]; single SC dose, generally",≥ 2 weeks
same,time to maximum concentrations after dosing,"[1]; single SC dose, generally over the three dose levels",about 4 hours
same,early burst effect or dose dumping,[1]; single dose administration,no early burst effect or dose dumping
same,lag-time of absorption,[1]; single dose administration,little to no lag-time
same,accumulation index,[2]; [4],1.46
same,lag in absorption,[2]; [4],no lag in absorption
same,"attainment of steady state (trough concentrations, visual inspection)","[2]; 10 mg SC once weekly, 4 weekly doses",attained during Week 4
same,Cmax,"[2]; human, plasma, 10 mg SC once weekly for 4 weeks",11.4 ng/mL
same,level at 168 h,"[2]; human, plasma, 10 mg SC once weekly for 4 weeks, end of 1-week dosing interval, read-out: mean concentration at 168 hours",2.92 ng/mL
same,Tmax,"[2]; human, plasma, 10 mg SC once weekly for 4 weeks, read-out: median tmax",4 h
same,setmelanotide degradation,"[3]; 15 mg/mL formulations compared with 30 mg/mL formulations, synthetic GDO",higher levels of degradation
same,setmelanotide degradation,"[3]; 30 mg/mL formulation prepared with synthetic GDO vs GDO of commercial purity or further purified, 40° C. up to three months, HPLC",lower amount
same,effect of higher EDTA concentration on setmelanotide stability,"[3]; GDO of commercial purity or synthetic GDO, HPLC over time",small effect
same,effect of increasing EDTA concentration on degradation,"[3]; as setmelanotide concentration decreases, synthetic GDO",greater effect
